A word on the IC50: it is the concentration that gives 50% inhibition.

Structures are written as SMILES.

In patent US20050245563A1 (Millennium Pharmaceuticals, Inc., priority 2003, published 2005) one finds IC50 data, which are given here for 31 compounds.

This experiment deals with T1, human Chk1 (GST-Chk1) (Homo sapiens, UniProt O14757).
T1 construct: made in house; host or cells: insect cells (baculovirus, Bac-to-Bac)
T1 sequence (O14757 1-476): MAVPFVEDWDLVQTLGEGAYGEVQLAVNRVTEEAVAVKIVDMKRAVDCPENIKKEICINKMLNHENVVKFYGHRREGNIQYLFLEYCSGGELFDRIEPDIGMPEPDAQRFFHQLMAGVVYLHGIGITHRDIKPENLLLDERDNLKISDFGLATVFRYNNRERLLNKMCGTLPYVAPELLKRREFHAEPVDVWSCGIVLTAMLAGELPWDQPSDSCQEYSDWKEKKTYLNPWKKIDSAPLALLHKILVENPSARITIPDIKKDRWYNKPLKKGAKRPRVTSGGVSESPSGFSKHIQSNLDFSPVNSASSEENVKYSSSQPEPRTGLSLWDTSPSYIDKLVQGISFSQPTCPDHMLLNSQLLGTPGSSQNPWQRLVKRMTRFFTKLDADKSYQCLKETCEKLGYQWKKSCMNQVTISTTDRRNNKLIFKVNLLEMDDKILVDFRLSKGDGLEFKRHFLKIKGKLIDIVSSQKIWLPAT
The experiment is described as follows: Chk1 DELFIA kinase assay (2 nM GST-Chk1, 600 μM ATP). Conditions: Biotin-GLYRSPSMPEN-amide substrate. The format is biochemical. The method, then:
Recombinant human Chk1 was expressed as a fusion protein with glutathione S-transferase at the amino-terminus (GST-Chk1) using standard baculovirus vectors and (Bac-to-Bac®) insect cell expression system purchased from GIBCO™ Invitrogen. Recombinant protein expressed in insect cells was purified using glutathione sepharose (Amersham Biotech) using standard procedures described by the manufacturer.
Chk1 DELFIA® Kinase Assay:
Assays (25 μL) utilized 2 nM GST-Chk1 containing 10 mM Tris, pH 7.5, 20% glycerol, 50 mM sodium chloride (NaCl), 0.01% Surfact-Amps® 20, 1 μM peptide stubstrate (Biotin-GLYRSPSMPEN-amide) (SEQ ID NO: 3), 01.% BSA, 2 mM DTT, 4% DMSO, 600 μM ATP, 10 MM MgCl2 and reacted for 50 minutes at room temperature. Reactions were terminated with 100 μL of Stop buffer containing 1% BSA, 10 mM Tris, pH 8.0, 150 mM NaCl, 100 mM EDTA. Stopped reactions (100 μL) were transferred to 96 well NeutrAvidin plates (Pierce) to capture the biotin-peptide substrate during a 30 minute room temperature incubation. Wells were washed and reacted with 100 μL PerkinElmer Wallac Assay Buffer containing 21.5 ng/ml anti-phospho-Ser216-Cdc25c rabbit polyclonal antibody from Cell Signaling Technology (Beverly, Mass.) and 292 ng/ml europium labeled anti-rabbit-IgG for 1 hour at room temperature. Wells were washed and europium released from the bound antibody by addition of Enhancement Solution (100 μL) (PerkinElmer Wallac) and detected using a Perkin Elmer Wallac Envison™ 2100 multilabel reader using standard manufacturer settings.

Compound `Cc1[nH]nc2c1c(=O)n(CCCN)c1ccc(NC(=O)CN(C)C)cc21` [Example 264, N-[5-(3-aminopropyl)-3-methyl-4-oxo4,5-dihydro-2H-pyrazolo[4,3-c]quinolin-8-yl]-2-dimethylaminoacetamide] came in with a 50% inhibitory concentration (IC50) of less than 1000 nM. Regarding `COC(=O)/C(=C/c1ccc2c(c1)c1n[nH]c(C)c1c(=O)n2CCCN)NC(C)=O` [Example 270, 2-Acetylamino-3-[5-(3-amino-propyl)-3-methyl-4-oxo-4,5-dihydro-2H-pyrazolo[4,3-c]quinolin-8-yl]-acrylic acid methyl ester], the IC50 is less than 1000 nM. `Cc1[nH]nc2c1c(=O)n(CCCN)c1ccc(C#N)cc21` [Example 271, 5-(3-Amino-propyl)-3-methyl-4-oxo-4,5-dihydro-2H-pyrazolo[4,3-c]quinoline-8-carbonitrile] yielded an IC50 of less than 1000 nM. As for `Cc1[nH]nc2c1c(=O)n(CCCN)c1ccc(C#CCO)cc21` [Example 272, 5-(3-Amino-propyl)-8-(3-hydroxy-prop-1-ynyl)-3-methyl-2,5-dihydro-pyrazolo[4,3-c]quinolin-4-one], the figure is less than 1000 nM.

`Cc1[nH]nc2c1c(=O)n(CCCN)c1ccc(C#CCN)cc21` [Example 273, 5-(3-Amino-propyl)-8-(3-amino-prop-1-ynyl]-3-methyl 2,5-dihydro-pyrazolo[4,3-c]quinolin-4-one] had an IC50 of less than 1000 nM. Next, `CNCC#Cc1ccc2c(c1)c1n[nH]c(C)c1c(=O)n2CCCN` [Example 274, 5-(3-Amino-propyl)-3-methyl 8-(3-methylamino-prop-1-ynyl]-2,5-dihydro-pyrazolo[4,3-c]quinolin-4-one]: less than 1000 nM; `Cc1[nH]nc2c1c(=O)n(CCCN)c1ccc(C#CCN(C)Cc3ccccc3)cc21` [Example 275, 5-(3-Amino-propyl)-8-[3-(benzyl-methyl-amino)-prop-1-ynyl]-3-methyl-2,5-dihydro-pyrazolo[4,3-c]quinolin-4-one]: less than 1000 nM; `CC(=O)NCC#Cc1ccc2c(c1)c1n[nH]c(C)c1c(=O)n2CCCN` [Example 276, N-{^3-[5-(3-Amino-propyl)-3-methyl-4-oxo4,5-dihydro-2H-pyrazolo[4,3-c]quinolin-8-yl]-prop-2-ynyl]-acetamide]: less than 1000 nM.

In turn, `Cc1[nH]nc2c1c(=O)n(CCCN)c1ccc(C#Cc3cccnc3)cc21` [Example 277] gave an IC50 of less than 1000 nM. For the compound `Cc1[nH]nc2c1c(=O)n(CCCN)c1ccc(C#Cc3ccccn3)cc21` [Example 278, 5-(3-Amino-propyl)-3-methyl-8-pyridin-2-ylethylynyl-2,5-dihydro-pyrazolo[4,3-c]quinolin-4-one], the IC50 was less than 1000 nM. As for `Cc1[nH]nc2c1c(=O)n(CCCN)c1ccc(C#Cc3ccncc3)cc21` [Example 279, 5-(3-Amino-propyl)-3-methyl-8-pyridin-4-ylethylynyl-2,5-dihydro-pyrazolo[4,3-c]quinolin-4-one], the figure is less than 1000 nM; as for `Cc1[nH]nc2c1c(=O)n(CCCN)c1ccc(C#CCOc3ccccc3)cc21` [Example 280, 5-(3-Amino-propyl)-3-methyl-8-(3-phenoxy-prop-1-ynyl)-2,5-dihydro-pyrazolo[4,3-c]quinolin-4-one], less than 1000 nM. Take `COCC#Cc1ccc2c(c1)c1n[nH]c(C)c1c(=O)n2CCCN` [Example 281, 5-(3-Amino-propyl)-8-(3-methoxy-prop-1-ynyl)-3-methyl-2,5-dihydro-pyrazolo[4,3-c]quinolin-4-one]: the half-inhibitory concentration (IC50) was less than 1000 nM.

Compound `Cc1[nH]nc2c1c(=O)n(CCCN)c1ccc(C#CC(C)O)cc21` (stereo not shown) [Example 282, 5-(3-Amino-propyl)-8-(3-hydroxy-but-1-ynyl)-3-methyl 2,5-dihydro-pyrazolo[4,3-c]quinolin-4-one] came in with a 50% inhibitory concentration (IC50) of less than 1000 nM. Take `CC#Cc1ccc2c(c1)c1n[nH]c(C)c1c(=O)n2CCCN` [Example 283, 5-(3-Amino-propyl)-3-methyl 8-prop-1-ynyl-2,5-dihydro-pyrazolo[4,3-c]quinolin-4-one]: the IC50 is less than 1000 nM. Next, `Cc1[nH]nc2c1c(=O)n(CCCN)c1ccc(C#CCN(C)C)cc21` [Example 284, 5-(3-Amino-propyl)-8-(3-dimethylamino-prop-1-ynyl]-3-methyl 2,5-dihydro-pyrazolo[4,3-c]quinolin-4-one]: less than 1000 nM; `Cc1[nH]nc2c1c(=O)n(CCCN)c1ccc(C#CCN3CCCC3)cc21` [Example 285, 5-(3-Amino-propyl)-3-methyl-8-(3-pyrrolidin-1-yl-prop-1-ynyl]-2,5-dihydro-pyrazolo[4,3-c]quinolin4-one]: less than 1000 nM. The compound `Cc1[nH]nc2c1c(=O)n(CCCN)c1ccc(C#CCN3CCCCC3)cc21` [Example 286, 5-(3-Amino-propyl)-3-methyl-8-(3-piperidin-1-yl-prop-1-ynyl]-2,5-dihydro-pyrazolo[4,3-c]quinolin-4-one] displayed a 50% inhibitory concentration (IC50) of less than 1000 nM. As for `CC(=O)N1CCN(CC#Cc2ccc3c(c2)c2n[nH]c(C)c2c(=O)n3CCCN)CC1` [Example 287, 8-[3-(4-Acetyl-piperazin-1-yl)-prop-1-ynyl]-5-(3-amino-propyl)-3-methyl-2,5-dihydro-pyrazolo[4,3-c]quinolin-4-one], the IC50 is less than 1000 nM. In turn, `Cc1[nH]nc2c1c(=O)n(CCCN)c1ccc(C#CCN3CCN(C)CC3)cc21` [Example 288, 5-(3-Amino-propyl)-3-methyl-8-[3-(4-methyl-piperazin-1-yl)-prop-1-ynyl]-2,5-dihydro-pyrazolo[4,3-c]quinolin-4-one] gave an IC50 of less than 1000 nM. Consider `Cc1[nH]nc2c1c(=O)n(CCCN)c1ccc(C#CCN3CCOCC3)cc21` [Example 289, 5-(3-Amino-propyl)-3-methyl-8-(3-morpholin-4-yl-prop-1-ynyl]-2,5-dihydro-pyrazolo[4,3-c]quinolin-4-one], for which the half-inhibitory concentration (IC50) is less than 1000 nM. Next, `Cc1[nH]nc2c1c(=O)n(CCCN)c1ccc(C#CCn3ccnc3)cc21` [Example 290, 5-(3-Amino-propyl)-8-(3-imidazol-1-yl-prop-1-ynyl]-3-methyl-2,5-dihydro-pyrazolo[4,3-c]quinolin-4-one]: less than 1000 nM; `C#Cc1ccc2c(c1)c1n[nH]c(C)c1c(=O)n2CCCN` [Example 291, 5-(3-Amino-propyl)-8-ethynyl-3-methyl-2,5-dihydro-pyrazolo[4,3-c]quinolin-4-one]: less than 1000 nM; `C#Cc1ccc2c(c1)c1n[nH]c(CCOC)c1c(=O)n2CCCN` [Example 292, 5-(3-Amino-propyl)-8-ethynyl-3-(2-methoxy-ethyl)-2,5-dihydro-pyrazolo[4,3-c]quinolin-4-one]: less than 1000 nM. Next, `C#Cc1ccc2c(c1)c1n[nH]c(C)c1c(=O)n2CCCNC` [Example 293, 8-Ethynyl-3-methyl-5-(3-methylamino-propyl)-2,5-dihydro-pyrazolo[4,3-c]quinolin-4-one]: less than 1000 nM; `CCc1ccc2c(c1)c1n[nH]c(C)c1c(=O)n2CCCN` [Example 294, 5-(3-Amino-propyl)-8-ethyl-3-methyl-2,5-dihydro-pyrazolo[4,3-c]quinolin4-one]: less than 1000 nM. With `COCCCc1ccc2c(c1)c1n[nH]c(C)c1c(=O)n2CCCN` [Example 295, 5-(3-amino-propyl)-8-(3-methoxypropyl)-3-methyl-2,5-dihydro-pyrazolo[4,3-c]quinolin-4-one], the 50% inhibitory concentration (IC50) was less than 1000 nM. `Cc1[nH]nc2c1c(=O)n(CCCN)c1ccc(CCCN(C)C)cc21` [Example 296, 5-(3-Amino-propyl)-8-(3-dimethylamino-propyl)-3-methyl-2,5-dihydro-pyrazolo[4,3-c]quinolin-4-one] gave an IC50 of less than 1000 nM. As for `Cc1[nH]nc2c1c(=O)n(CCCN)c1ccc(CCCN3CCCC3)cc21` [Example 297, 5-(3-Amino-propyl)-3-methyl-8-(3-pyrrolidin-1-yl-propyl)-2,5-dihydro-pyrazolo[4,3-c]quinolin-4-one], the figure is less than 1000 nM. `CC(=O)NCCCc1ccc2c(c1)c1n[nH]c(C)c1c(=O)n2CCCN` [Example 298, N-{3-[5-(3-Amino-propyl)-3-methyl-4-oxo-4,5-dihydro-2H-pyrazolo[4,3-c]quinolin-8-yl]-propyl}-acetamide] yielded a concentration for half-maximal inhibition (IC50) of less than 1000 nM. `Cc1[nH]nc2c1c(=O)n(CCCN)c1ccc(CCc3ccccn3)cc21` [Example 299, 5-(3-Amino-propyl)-3-methyl-8-(2-pyridin-2-yl-thyl)-2,5-dihydro-pyrazolo[4,3-c]quinolin-4-one] had a half-inhibitory concentration (IC50) of less than 1000 nM.
